# Assay results as given in US7659244B2, “Rapamycin peptides conjugates: synthesis and uses thereof” (Quest Pharmatech, Inc., priority 2004, dated 2010).
# Read-outs that look alike come from different tables or passages of the source.
# What was measured:
# [1] = tested on: SKOV-3
# Protocol: (§1) Quantification of cell proliferation and cell viability was determined by measuring the amount of radioactive [^3H-methyl]-thymidine incorporated into DNA.
# (§2) Cell culture: For each cell line, culture was carried according to the ATCC Product Information Sheet provided. Cell lines were always freshly thawed prior to each experiment. For all experiments exponentially growing cells were harvested and centrifuged at 1100 rpm, the spent medium was aspirated and cell pellets were resuspended in fresh complete medium. Viable cells were enumerated by trypan blue exclusion using a hemacytometer.
# (§3) Cells were then seeded in 96 well tissue culture plates in a total volume of 100 μL/well. A preliminary experiment should be performed to determine the most appropriate cell density for each individual cell line. Cells were allowed to attach and acclimate overnight.
# (§4) Addition of test compounds: Each test compound was dissolved in DMSO at a final concentration of 2 mM. Each stock compound was then diluted in complete medium (1:100) to obtain a 20 μM working solution. The working solution was used for further serial dilutions to obtain concentrations of 200 nM, 20 nM, 2 nM, 0.2 nM and 0.02 nM. 100 μL of each dilution was added to the 100 μL cell cultures (3 replicates),. to give final test concentrations of 100 nM, 10 nM, 1 nM, 0.1 nM and 0.01 nM. Using this system of dilutions, the maximum concentration of DMSO to which the cells were exposed was 0.01% v/v. Therefore, 0.01% DMSO was added to control cells to which no test compounds was added. On each plate two positive controls were included: Adriamycin Hydrochloride and Rapamycin. For each positive control 3 concentrations were chosen in a range that achieved an LC50, this range is cell line specific and must be predetermined in a pilot experiment. Plates were incubated for 96 hours prior to harvesting. [^3H-methyl]-thymidine incorporation: After 80 hours incubation, 10 μL (0.5 μCi) of [^3H-methyl]-thymidine diluted in 1× HBSS was added and plates were incubated overnight.
# (§5) Growth medium was removed from each well and 100 uL of Trypsin-EDTA was added. The plate was incubated at 37° C. until cells were trypsinized (check under microscope). The detached cells were harvested using a semiautomatic cell harvester. Filters were dried prior to addition to scintillation vials. two mL of scintillation fluid was automatically dispensed into each vial and counting was effected on program 1 (^3H, 1 min, DPM).
# (§6) The average and standard error from the DPM counts of replicate samples were calculated.
# [2] = tested on: A431
# Protocol: as §1, §2, §3, §4, §5, §6
# [3] = tested on: D341
# Protocol: as §1, §2, §3, §4, §5, §6
# [4] = tested on: MCF-7
# Protocol: as §1, §2, §3, §4, §5, §6
# [5] = tested on: OVCAR-3
# Protocol: as §1, §2, §3, §4, §5, §6
# [6] = tested on: Lncap
# Protocol: as §1, §2, §3, §4, §5, §6
# [7] = tested on: LS174T
# Protocol: as §1, §2, §3, §4, §5, §6
# [8] = tested on: SKMEL-2
# Protocol: as §1, §2, §3, §4, §5, §6
# [9] = tested on: SK-N-SH
# Protocol: as §1, §2, §3, §4, §5, §6
# [10] = read-out: Inhibition of H^3 Thymidine uptake (IC50 in nM), SKOV-3 cells, 96 hours incubation
# [11] = read-out: Inhibition of H^3 Thymidine uptake (IC50 in nM), A431 cells, 96 hours incubation
# [12] = read-out: Inhibition of H^3 Thymidine uptake (IC50 in nM), D341 cells, 96 hours incubation
# [13] = read-out: Inhibition of H^3 Thymidine uptake (IC50 in nM), MCF-7 cells, 96 hours incubation
# [14] = read-out: Inhibition of H^3 Thymidine uptake (IC50 in nM), OVCAR-3 cells, 96 hours incubation
# [15] = read-out: Inhibition of H^3 Thymidine uptake (IC50 in nM), Lncap cells, 96 hours incubation
# [16] = read-out: Inhibition of H^3 Thymidine uptake (IC50 in nM), SKMEL-2 cells, 96 hours incubation
# [17] = read-out: Inhibition of H^3 Thymidine uptake (IC50 in nM), SK-N-SH cells, 96 hours incubation
# [18] = read-out: Inhibition of H^3 Thymidine uptake (IC50 in nM), LS174T cells, 96 hours incubation
SMILES,IC50 ([1]; 96 h),IC50 ([2]; 96 h),IC50 ([3]; 96 h),IC50 ([4]; 96 h),IC50 ([5]; 96 h),IC50 ([6]; 96 h),IC50 ([7]; 96 h),IC50 ([8]; 96 h),IC50 ([9]; 96 h),"IC50 [1, 10]","IC50 [2, 11]","IC50 [3, 12]","IC50 [4, 13]","IC50 [5, 14]","IC50 [6, 15]","IC50 [8, 16]","IC50 [9, 17]","IC50 [7, 18]"
"CC[C@H](C)[C@H](NC(=O)O[C@@H]1CC[C@@H](C[C@@H](C)[C@@H]2CC(=O)[C@H](C)/C=C(\C)[C@@H](O)[C@@H](OC)C(=O)[C@H](C)C[C@H](C)/C=C/C=C/C=C(\C)[C@@H](OC)C[C@@H]3CC[C@@H](C)[C@@](O)(O3)C(=O)C(=O)N3CCCC[C@H]3C(=O)O2)C[C@H]1OC)C(=O)N[C@@H](CO)Cc1ccccc1 [Compound 7a, Rapamycin-42-O-ester-(NH-L-Ile-D-Phe-CH2OH)]",80 nM,608 nM,138 nM,29.6 nM,416 nM,154 nM,626 nM,78.1 nM,86.9 nM,,,,,,,,,
"CC[C@H](C)[C@H](NC(=O)O[C@@H]1CC[C@@H](C[C@@H](C)[C@@H]2CC(=O)[C@H](C)/C=C(\C)[C@@H](O)[C@@H](OC)C(=O)[C@H](C)C[C@H](C)/C=C/C=C/C=C(\C)[C@@H](OC)C[C@@H]3CC[C@@H](C)[C@@](O)(O3)C(=O)C(=O)N3CCCC[C@H]3C(=O)O2)C[C@H]1OC)C(=O)N[C@H](CO)Cc1ccccc1 [Compound 7b, Rapamycin-42-O-ester-(NH-L-Ile-S-Phe-CH2OH)]",136 nM,1840 nM,182 nM,53.3 nM,424 nM,309 nM,1480 nM,326 nM,144 nM,,,,,,,,,
"CC[C@H](C)[C@H](NC(=O)[C@H](CC(C)C)NC(=O)O[C@@H]1CC[C@@H](C[C@@H](C)[C@@H]2CC(=O)[C@H](C)/C=C(\C)[C@@H](O)[C@@H](OC)C(=O)[C@H](C)C[C@H](C)/C=C/C=C/C=C(\C)[C@@H](OC)C[C@@H]3CC[C@@H](C)[C@@](O)(O3)C(=O)C(=O)N3CCCC[C@H]3C(=O)O2)C[C@H]1OC)C(=O)N[C@@H](CO)Cc1ccccc1 [Compound 7c, Rapamycin-42-O-ester-(NH-L-Leu-L-Ile-D-Phe-CH2OH)]",72.1 nM,286 nM,114 nM,32.3 nM,260 nM,212 nM,1700 nM,87.4 nM,111 nM,,,,,,,,,
"CC[C@H](C)[C@H](NC(=O)[C@@H](CC(C)C)NC(=O)O[C@@H]1CC[C@@H](C[C@@H](C)[C@@H]2CC(=O)[C@H](C)/C=C(\C)[C@@H](O)[C@@H](OC)C(=O)[C@H](C)C[C@H](C)/C=C/C=C/C=C(\C)[C@@H](OC)C[C@@H]3CC[C@@H](C)[C@@](O)(O3)C(=O)C(=O)N3CCCC[C@H]3C(=O)O2)C[C@H]1OC)C(=O)N[C@H](CO)Cc1ccccc1 [Compound 7d, Rapamycin-42-O-ester-(NH-D-Leu-L-Ile-S-Phe-CH2OH)]",94.3 nM,12700 nM,140 nM,52.2 nM,343 nM,198 nM,,358 nM,137 nM,,,,,,,,,
"CC[C@H](C)[C@H](NC(=O)[C@H](CC(C)C)NC(=O)[C@H](C)NC(=O)O[C@@H]1CC[C@@H](C[C@@H](C)[C@@H]2CC(=O)[C@H](C)/C=C(\C)[C@@H](O)[C@@H](OC)C(=O)[C@H](C)C[C@H](C)/C=C/C=C/C=C(\C)[C@@H](OC)C[C@@H]3CC[C@@H](C)[C@@](O)(O3)C(=O)C(=O)N3CCCC[C@H]3C(=O)O2)C[C@H]1OC)C(=O)N[C@@H](CO)Cc1ccccc1 [Compound 7e, Rapamycin-42-O-ester-(NH-L-Ala-L-Leu-L-Ile-D-Phe-CH2OH)]",76.6 nM,490 nM,82.8 nM,66.9 nM,503 nM,191 nM,146 nM,155 nM,90 nM,,,,,,,,,
CC[C@H](C)[C@H](NC(=O)[C@H](CC(C)C)NC(=O)[C@H](C)NC(=O)[C@@H](Cc1cn(C(c2ccccc2)(c2ccccc2)c2ccccc2)cn1)NC(=O)O[C@@H]1CC[C@@H](C[C@@H](C)[C@@H]2CC(=O)[C@H](C)/C=C(\C)[C@@H](O)[C@@H](OC)C(=O)[C@H](C)C[C@H](C)/C=C/C=C/C=C(\C)[C@@H](OC)C[C@@H]3CC[C@@H](C)[C@@](O)(O3)C(=O)C(=O)N3CCCC[C@H]3C(=O)O2)C[C@H]1OC)C(=O)N[C@@H](CO)Cc1ccccc1 [Compound 7g],595 nM,,937 nM,2440 nM,,,3680 nM,946 nM,,,,,,,,,,
"CO[C@H]1C[C@@H]2CC[C@@H](C)[C@@](O)(O2)C(=O)C(=O)N2CCCC[C@H]2C(=O)O[C@H]([C@H](C)C[C@@H]2CC[C@@H](OC(=O)N[C@H](CO)Cc3ccccc3)[C@H](OC)C2)CC(=O)[C@H](C)/C=C(\C)[C@@H](O)[C@@H](OC)C(=O)[C@H](C)C[C@H](C)/C=C/C=C/C=C/1C [Compound 7j, Rapamycin-42-O-ester-(S) (−)-2-amino-3-phenyl-1-propanol]",,,,,,,,,,55.9 nM,506 nM,106 nM,15.3 nM,264 nM,166 nM,157 nM,80 nM,
"COC1CC2CCC(C)C(O)(O2)C(=O)C(=O)N2CCCCC2C(=O)OC(C(C)CC2CCC(OC(=O)NC(CO)CC(C)C)C(OC)C2)CC(=O)C(C)C=C(C)C(O)C(OC)C(=O)C(C)CC(C)C=CC=CC=C1C [Compound 7s, Rapamycin-42-O-ester-(R)-(−)-2-amino-4-methyl pentanol]",,,,,,,,,,93.6 nM,625 nM,103 nM,15.6 nM,355 nM,189 nM,154 nM,97.3 nM,
"CO[C@H]1C[C@@H]2CC[C@@H](C)[C@@](O)(O2)C(=O)C(=O)N2CCCC[C@H]2C(=O)O[C@H]([C@H](C)C[C@@H]2CC[C@@H](OC(=O)CCC(=O)N[C@H](CO)Cc3ccccc3)[C@H](OC)C2)CC(=O)[C@H](C)/C=C(\C)[C@@H](O)[C@@H](OC)C(=O)[C@H](C)C[C@H](C)/C=C/C=C/C=C/1C [Compound 7v, Rapamycin-42-O-(3-carboxypropanoyl) ester-(S) (−)-2-amino-3-phenyl-1-propanol]",,,,,,,,,,10.4 nM,1030 nM,15 nM,5.52 nM,95.5 nM,48.3 nM,81 nM,18.8 nM,
COC(=O)C(NC(=O)O[C@@H]1CC[C@@H](C[C@@H](C)[C@@H]2CC(=O)[C@H](C)/C=C(\C)[C@@H](O)[C@@H](OC)C(=O)[C@H](C)C[C@H](C)/C=C/C=C/C=C(\C)[C@@H](OC)C[C@@H]3CC[C@@H](C)[C@@](O)(O3)C(=O)C(=O)N3CCCC[C@H]3C(=O)O2)C[C@H]1OC)C(=O)OC [Compound 7w],,,,,,,,,,26.5 nM,,,103 nM,,83.5 nM,378 nM,164 nM,859 nM
CO[C@H]1C[C@@H]2CC[C@@H](C)[C@@](O)(O2)C(=O)C(=O)N2CCCC[C@H]2C(=O)O[C@H]([C@H](C)C[C@@H]2CC[C@@H](OC(=O)NC3C(=O)OC(C)(C)OC3=O)[C@H](OC)C2)CC(=O)[C@H](C)/C=C(\C)[C@@H](O)[C@@H](OC)C(=O)[C@H](C)C[C@H](C)/C=C/C=C/C=C/1C [Compound 7x],,,,,,,,,,3.4 nM,,,7.09 nM,,3.32 nM,113 nM,11.3 nM,433 nM
